Results from patent publication US4261921A, “Process for preparation of a crystalline insecticidal pyrethroid enantiomer pair” (priority 1979, dated 1981).

Assays:
[1] = tested on: cabbage looper (Trichoplusia ni); experiment: Topical Application Test, cabbage looper (CL); type: in vivo
Protocol: (§1) The compound of this invention was tested for insecticidal activity by applying to the insect appropriate amounts of a toxicant solution containing 5 mg/ml of toxicant in acetone. The tests were read twenty-four hours after application of the toxicant solution and the percent kill determined. The commercial insecticide permethrin, 3-phenoxybenzyl (+) cis-trans-3-(2,2-dichlorovinyl)-2,2-dimethylcyclopropanecarboxylate, was used as the standard for comparison. Relative potency, based on a value of 1.0 for permethrin, was determined by comparing the LD50 for the test compound with that for the standard. The insects employed include southern armyworm (Spodoptera eridania [Cram.]), cabbage looper (Trichoplusia ni [Hubner]), Mexican bean beetle (Epilachna varivestis Muls.), beet armyworm (Spodoptera exigua [Hubner]), milkweed bug (Oncopeltus faciatus [Dallas]), tobacco budworm (Heliothis virescens [Fabricius]), and corn earworm (Heliothis zea [Boddle]).

[2] = tested on: southern armyworm (Spodoptera eridania); experiment: Topical Application Test, southern armyworm (SAW); type: in vivo; conditions: LD50 compared with permethrin = 1.0
Protocol: as §1

[3] = tested on: Mexican bean beetle (Epilachna varivestis); experiment: Initial Contact (Foliar) Activity, Mexican bean beetle (MBB); type: in vivo
Protocol: (§2) The compound of the invention was dissolved in a solution of 90% water, 9.75% acetone; and 0.25% octylphenoxypolyethoxyethanol to give a solution having 512 ppm (w/w) active ingredient. Aliquots of this solution were diluted with an appropriate amount of water to provide solutions containing various concentrations of active ingredient. Test organisms and techniques were as follows: The activity against Mexican bean beetle (Epilachna varivestis Muls.) and southern armyworm (Spodoptera eridania [Cram.]) was evaluated by spraying the leaves of pinto bean plants with the test solution and infesting with 3rd instar larvae after the foliage had dried. The activity against the pea aphid (Acyrthosiphon pisum [Harris]) was evaluated on broad bean plants whose leaves were sprayed before infestation with adult aphids. To prevent escape of the insects from the test site, the complete test plant or the incised leaves were placed in capped paper cups. The tests were transferred to a holding room for an exposure period of 48 hours. At the end of this time the dead and living insects were counted, the LD50 was calculated, and the potency relative to the commercial insecticide permethrin, 3-phenoxybenzyl (+) cis,trans-3-(2,2-dichloroethenyl)-2,2-dimethylcyclopropanecarboxylate determined.

[4] = tested on: Mexican bean beetle (Epilachna varivestis); experiment: Topical Application Test, Mexican bean beetle (MBB); type: in vivo
Protocol: as §1

[5] = tested on: milkweed bug (Oncopeltus fasciatus); experiment: Topical Application Test, milkweed bug (MWB); type: in vivo
Protocol: as §1

[6] = tested on: southern armyworm (Spodoptera eridania); experiment: Initial Contact (Foliar) Activity, southern armyworm (SAW); type: in vivo
Protocol: as §2

[7] = tested on: tobacco budworm (Heliothis virescens); experiment: Topical Application Test, tobacco budworm (TBW); type: in vivo; conditions: LD50 compared with permethrin = 1.0
Protocol: as §1

[8] = tested on: insects; experiment: Topical Application Test, all insects, comparison with permethrin in words; type: in vivo; conditions: topical tests, 24 h
Protocol: as §1

[9] = tested on: beet armyworm (Spodoptera exigua); experiment: Topical Application Test, beet armyworm (BAW); type: in vivo
Protocol: as §1

[10] = tested on: corn earworm (Heliothis zea); experiment: Topical Application Test, corn earworm (CEW); type: in vivo
Protocol: as §1

[11] = tested on: pea aphid (Acyrthosiphon pisum); experiment: Initial Contact (Foliar) Activity, pea aphid (PA); type: in vivo
Protocol: as §2

[12] = U.S. Pat. No. 4,136,195; cited from earlier work
[13] = LD50 compared with permethrin = 1.0

SMILES	Relative Potency [1, 13]	LD50 ([1]; read 24 h after application) [ng/insect]	Relative Potency [2]	LC50 ([3]; Mexican bean beetle 3rd instar larvae, pinto bean, 48 h exposure)	Relative Potency ([3]; Mexican bean beetle, 48 h, relative to permethrin)	Relative Potency [4, 13]	LD50 ([4]; read 24 h after application) [ng/insect]	Relative Potency [5, 13]	LD50 ([5]; read 24 h after application) [ng/insect]	LC50 ([6]; southern armyworm 3rd instar larvae, pinto bean, 48 h exposure)	Relative Potency ([6]; southern armyworm, 48 h, relative to permethrin)	Relative Potency [7]	insecticidal activity compared with permethrin [8]	Relative Potency [9, 13]	LD50 ([9]; read 24 h after application) [ng/insect]	Relative Potency [10, 13]	LD50 ([10]; read 24 h after application) [ng/insect]	LC50 ([11]; pea aphid adults, broad bean, 48 h exposure)	Relative Potency ([11]; pea aphid, 48 h, relative to permethrin)	activity among the disclosed diastereomers [12]
CC1(C)[C@H](C(=O)O[C@H](C#N)c2cccc(Oc3ccccc3)c2)[C@@H]1C=C(Cl)Cl (relative stereo) [compound of the invention, racemic mixture of (S)-(cyano)(3-phenoxyphenyl)methyl (1R,cis)-3-(2,2-dichloroethenyl)-2,2-dimethylcyclopropanecarboxylate and (R)-(cyano)(3-phenoxyphenyl)methyl (1S,cis)-3-(2,2-dichloroethenyl)-2,2-dimethylcyclopropanecarboxylate]	9.0	14.9	1.0-1.5	1.62-1.86 parts per million	5.3-8.8	7.2	2.03	37.6	16.4	.22-.38 parts per million	9.8-16.1	4.2-6.1	substantially more active than permethrin	5.1	218.8	2.5	110.9	1.39-21.15 parts per million	2.5-9.8	–
CC1(C)[C@H](C(=O)O[C@H](C#N)c2cccc(Oc3ccccc3)c2)[C@@H]1C=C(Cl)Cl [1R,cis-α-S isomer, (S)-(cyano)(3-phenoxyphenyl)methyl (1R,cis)-3-(2,2-dichloroethenyl)-2,2-dimethylcyclopropanecarboxylate]	–	–	–	–	–	–	–	–	–	–	–	–	–	–	–	–	–	–	–	the more active of the disclosed diastereomers
